Reference: US20260325533A1, “CDK INHIBITOR COMPOUNDS” (ALEKSIA THERAPEUTICS, INC., priority 2023, published 2026)
Where two headings read alike, the source gives them in different places.

Experiments:
Assay type in all cases: biochemical
CDK2/CCNE1 = CDK2/CCNE1 (Homo sapiens, UniProt P24941); assay: CDK2 homogeneous time-resolved fluorescence (HTRF) kinase assay; conditions: CDK2/CCNE
How it was run: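 CDK2/CCNE1 (3 nM) preincubated 20 min at 23 °C with compound, then reacted 60 min at 23 °C with 1 mM ATP and 50 nM ULight-4E-BP1 (Thr37/46) peptide. Stopped with EDTA, phospho-peptide detected by Eu-anti-phospho antibody (665 nm or 665/615 ratio). IC50 from 11-point half-log titrations typically starting at 10 μM.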

CDK1/CCNB1 = CDK1/CCNB1 (Homo sapiens, UniProt P06493); assay: CDK1 homogeneous time-resolved fluorescence (HTRF) kinase assay; conditions: CDK1/CCNB; x = IC50 >250 nM; read-out: CDK1/CCNB IC50 (>250 nM column)
How it was run: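 0.5 nM CDK1/CCNB1 was preincubated 20 min at 23 °C with compound in HEPES pH-unspecified buffer (MgCl2, EGTA, DTT, Tween 20), then reacted 60 min with 1 mM ATP and 50 nM ULight-4E-BP1 (Thr37/46) peptide. EDTA-stopped reactions were detected with 2 nM Eu-anti-phospho antibody; IC50 from 11-point half-log titrations.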

CDK4/CCND3 = CDK4/CCND3 (Homo sapiens, UniProt P11802); assay: CDK4 homogeneous time-resolved fluorescence (HTRF) kinase assay; conditions: CDK4/CCND
How it was run: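 Inhibition of CDK4/CCND3 (1.5 nM) was measured at high ATP (1 mM) using 50 nM ULight-labelled 4E-BP1 Thr37/46 peptide; detection used 2 nM europium anti-phospho antibody after EDTA quench. IC50 values came from 11-point half-log titrations typically starting at 10 μM.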

CDK6/CCND1 = CDK6/CCND1 (Homo sapiens, UniProt Q00534); assay: CDK6 homogeneous time-resolved fluorescence (HTRF) kinase assay; conditions: CDK6/CCND
How it was run: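 1 nM enzyme, 1 mM ATP, 50 nM ULight-4E-BP1 (Thr37/46) peptide, 1% DMSO; 20 min compound preincubation, 60 min reaction, 23 °C. EDTA stop, 2 nM Eu-anti-phospho-4E-BP1 antibody 60 min. TR-FRET 665 nm (or 665/615 ratio); IC50 from 11-point half-log titration, top 10 μM.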

[1] = x = IC50 25-250 nM, read-out: CDK2/CCNE IC50 (25-250 nM)
[2] = x = IC50 >250 nM, read-out: CDK4/CCND IC50 (>250 nM column)
[3] = x = IC50 >250 nM, read-out: CDK6/CCND IC50 (>250 nM column)
[4] = x = IC50 >250 nM, read-out: CDK2/CCNE IC50 (>250 nM column)
[5] = x = IC50 <25 nM, read-out: CDK2/CCNE IC50 (<25 nM)
[6] = x = IC50 25-250 nM, read-out: CDK6/CCND IC50 (25-250 nM)
[7] = x = IC50 25-250 nM, read-out: CDK4/CCND IC50 (25-250 nM)

CDK1/CCNB1, sequence (P06493 whole entry): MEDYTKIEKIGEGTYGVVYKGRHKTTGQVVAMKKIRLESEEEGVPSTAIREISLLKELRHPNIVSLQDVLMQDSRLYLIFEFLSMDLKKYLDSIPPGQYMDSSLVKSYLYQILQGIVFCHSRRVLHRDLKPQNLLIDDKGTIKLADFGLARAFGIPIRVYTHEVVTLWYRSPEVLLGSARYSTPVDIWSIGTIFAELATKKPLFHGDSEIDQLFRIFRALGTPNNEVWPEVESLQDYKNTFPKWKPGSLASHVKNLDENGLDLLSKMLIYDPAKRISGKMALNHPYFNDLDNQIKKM
CDK1/CCNB1, sequence (P14635 whole entry partner): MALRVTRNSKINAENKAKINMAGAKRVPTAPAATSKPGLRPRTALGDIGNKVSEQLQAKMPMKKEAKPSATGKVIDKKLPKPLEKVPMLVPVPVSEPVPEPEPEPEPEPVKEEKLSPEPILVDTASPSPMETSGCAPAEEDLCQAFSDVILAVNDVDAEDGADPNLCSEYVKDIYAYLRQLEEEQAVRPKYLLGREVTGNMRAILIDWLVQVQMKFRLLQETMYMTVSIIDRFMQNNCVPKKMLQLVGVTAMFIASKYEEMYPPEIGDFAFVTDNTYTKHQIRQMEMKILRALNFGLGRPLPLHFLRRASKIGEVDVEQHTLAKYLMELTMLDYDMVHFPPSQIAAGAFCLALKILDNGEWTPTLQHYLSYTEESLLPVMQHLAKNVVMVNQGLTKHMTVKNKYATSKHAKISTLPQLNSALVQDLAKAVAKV
CDK6/CCND1, sequence (Q00534 whole entry): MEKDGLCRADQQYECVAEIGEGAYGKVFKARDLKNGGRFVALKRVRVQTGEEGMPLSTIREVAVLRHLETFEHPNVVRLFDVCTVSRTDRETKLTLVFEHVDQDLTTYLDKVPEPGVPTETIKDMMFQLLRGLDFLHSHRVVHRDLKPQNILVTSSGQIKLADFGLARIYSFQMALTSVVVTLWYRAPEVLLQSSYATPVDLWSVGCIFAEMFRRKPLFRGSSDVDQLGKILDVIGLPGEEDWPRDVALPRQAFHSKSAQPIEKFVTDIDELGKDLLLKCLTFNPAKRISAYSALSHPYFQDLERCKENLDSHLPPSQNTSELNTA
CDK6/CCND1, sequence (P24385 whole entry partner): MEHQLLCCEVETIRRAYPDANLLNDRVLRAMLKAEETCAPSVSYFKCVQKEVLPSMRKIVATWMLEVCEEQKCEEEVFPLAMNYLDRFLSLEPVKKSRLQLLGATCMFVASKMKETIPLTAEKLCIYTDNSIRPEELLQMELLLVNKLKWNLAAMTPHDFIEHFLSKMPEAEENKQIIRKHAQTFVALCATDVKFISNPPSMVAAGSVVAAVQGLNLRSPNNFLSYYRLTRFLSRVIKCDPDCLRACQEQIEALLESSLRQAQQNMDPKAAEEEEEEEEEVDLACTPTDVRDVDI
CDK4/CCND3, sequence (P11802 whole entry): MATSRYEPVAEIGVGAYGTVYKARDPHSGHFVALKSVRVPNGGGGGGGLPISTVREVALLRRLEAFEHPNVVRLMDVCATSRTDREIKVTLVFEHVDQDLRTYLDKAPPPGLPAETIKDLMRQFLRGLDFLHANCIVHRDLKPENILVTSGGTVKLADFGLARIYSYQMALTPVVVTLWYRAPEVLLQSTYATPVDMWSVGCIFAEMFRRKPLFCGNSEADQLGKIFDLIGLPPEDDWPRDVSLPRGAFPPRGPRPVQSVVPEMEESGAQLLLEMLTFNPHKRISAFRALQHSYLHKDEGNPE
CDK4/CCND3, sequence (P30281 whole entry partner): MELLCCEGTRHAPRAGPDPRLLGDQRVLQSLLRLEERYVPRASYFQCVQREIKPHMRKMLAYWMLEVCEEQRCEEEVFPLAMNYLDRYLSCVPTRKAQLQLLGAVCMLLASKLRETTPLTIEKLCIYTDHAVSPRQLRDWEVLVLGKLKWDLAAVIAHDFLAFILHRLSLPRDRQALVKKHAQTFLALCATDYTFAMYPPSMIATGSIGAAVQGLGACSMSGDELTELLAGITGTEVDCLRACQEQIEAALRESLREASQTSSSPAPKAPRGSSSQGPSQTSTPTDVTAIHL

SMILES | IC50 (CDK2/CCNE1; [1]) [nM] | IC50 (CDK1/CCNB1) [nM] | IC50 (CDK4/CCND3; [2]) [nM] | IC50 (CDK6/CCND1; [3]) [nM] | IC50 (CDK2/CCNE1; [4]) [nM] | IC50 (CDK2/CCNE1; [5]) [nM] | IC50 (CDK6/CCND1; [6]) [nM] | IC50 (CDK4/CCND3; [7]) [nM]
CS(=O)(=O)c1ccc(Nc2cc3c(C#Cc4ccc5c(c4)OCC(=O)N5)nccc3cn2)cc1 [Example 519, 7-((7-((4-(methylsulfonyl)phenyl)amino)-2,6-naphthyridin-1-yl)ethynyl)-2H-benzo[b][1,4]oxazin-3(4H)-one] | 25 to 250 | > 250 | > 250 | > 250 | – | – | – | –
CS(=O)(=O)c1ccc(Nc2cc3c(C#Cc4ccc(C(F)F)nc4)nccc3cn2)cc1 [Example 524, 5-((6-(difluoromethyl)pyridin-3-yl)ethynyl)-N-(4-(methylsulfonyl)phenyl)-2,6-naphthyridin-3-amine] | – | > 250 | > 250 | > 250 | > 250 | – | – | –
CS(=O)(=O)c1ccc(Nc2cc3c(C#Cc4ccc(Cl)cn4)nccc3cn2)cc1 [Example 544, 5-((5-chloropyridin-2-yl)ethynyl)-N-(4-(methylsulfonyl)phenyl)-2,6-naphthyridin-3-amine] | – | > 250 | > 250 | > 250 | > 250 | – | – | –
CC(C)(O)c1cc2ccc(C#Cc3nccc4cnc(Nc5ccc(S(C)(=O)=O)cc5)cc34)cc2[nH]1 [Example 590, 2-(6-((7-((4-(methylsulfonyl)phenyl)amino)-2,6-naphthyridin-1-yl)ethynyl)-1H-indol-2-yl)propan-2-ol] | 25 to 250 | > 250 | > 250 | > 250 | – | – | – | –
Cc1c(-c2nccc3cnc(Nc4ccc(S(C)(=O)=O)cc4)cc23)ncc2[nH]ncc12 [Example 591, 5-(4-methyl-1H-pyrazolo[3,4-c]pyridin-5-yl)-N-(4-(methylsulfonyl)phenyl)-2,6-naphthyridin-3-amine] | 25 to 250 | > 250 | > 250 | > 250 | – | – | – | –
CC(Cn1ncc2c(C)c(-c3nccc4cnc(Nc5ccc(S(C)(=O)=O)cc5)cc34)ccc21)=NO [Example 592, 1-(4-methyl-5-(7-((4-(methylsulfonyl)phenyl)amino)-2,6-naphthyridin-1-yl)-1H-indazol-1-yl)propan-2-one oxime] | 25 to 250 | > 250 | > 250 | > 250 | – | – | – | –
CC(=O)Nc1cc(Nc2cc3c(-c4ccc5c(cnn5CCO)c4C)nccc3cn2)ccc1S(C)(=O)=O [Example 593, N-(5-((5-(1-(2-hydroxyethyl)-4-methyl-1H-indazol-5-yl)-2,6-naphthyridin-3-yl)amino)-2-(methylsulfonyl)phenyl)acetamide] | 25 to 250 | > 250 | > 250 | > 250 | – | – | – | –
COC(=O)c1cc2ccc(C#Cc3nccc4cnc(Nc5ccc(S(C)(=O)=O)cc5)cc34)cc2[nH]1 [Example 594, methyl 6-((7-((4-(methylsulfonyl)phenyl)amino)-2,6-naphthyridin-1-yl)ethynyl)-1H-indole-2-carboxylate] | 25 to 250 | > 250 | > 250 | > 250 | – | – | – | –
Cc1c(-c2nccc3cnc(Nc4ccc(S(C)(=O)=O)cc4)cc23)ccc2c1cnn2CC(O)(C(F)(F)F)C(F)(F)F [Example 595, 1,1,1,3,3,3-hexafluoro-2-((4-methyl-5-(7-((4-(methylsulfonyl)phenyl)amino)-2,6-naphthyridin-1-yl)-1H-indazol-1-yl)methyl)propan-2-ol] | – | > 250 | > 250 | – | – | < 25 | 25 to 250 | –
CS(=O)(=O)c1ccc(Nc2cc3c(C#CC4CCN(Cc5cn[nH]c5)CC4)nccc3cn2)cc1 [Example 603, 5-((1-((1H-pyrazol-4-yl)methyl)piperidin-4-yl)ethynyl)-N-(4-(methylsulfonyl)phenyl)-2,6-naphthyridin-3-amine] | – | > 250 | > 250 | – | – | < 25 | 25 to 250 | –
CC(C)(O)CN1CCc2cc(-c3nccc4cnc(Nc5ccc(S(C)(=O)=O)cc5)cc34)ccc2C1 [Example 629, 2-Methyl-1-(6-(7-((4-(methylsulfonyl)phenyl)amino)-2,6-naphthyridin-1-yl)-3,4-dihydroisoquinolin-2(1H)-yl)propan-2-ol] | – | > 250 | > 250 | – | – | < 25 | 25 to 250 | –
CC(=O)NCCn1cc2c(C)c(-c3nccc4cnc(Nc5ccc(S(C)(=O)=O)cc5)cc34)ccc2n1 [Example 630, N-(2-(4-methyl-5-(7-((4-(methylsulfonyl)phenyl)amino)-2,6-naphthyridin-1-yl)-2H-indazol-2-yl)ethyl)acetamide] | – | > 250 | – | – | – | < 25 | 25 to 250 | 25 to 250
C=Cc1c(-c2nccc3cnc(Nc4ccc(S(C)(=O)=O)cc4)cc23)ccc2[nH]ncc12 [Example 641, N-(4-(methylsulfonyl)phenyl)-5-(4-vinyl-1H-indazol-5-yl)-2,6-naphthyridin-3-amine] | 25 to 250 | > 250 | > 250 | > 250 | – | – | – | –
Cc1c(-c2nccc3cnc(Nc4ccc(S(C)(=O)=O)cc4)cc23)ccc2c1cnn2CC(=O)NC1CCCCC1 [Example 642, N-cyclohexyl-2-(4-methyl-5-(7-((4-(methylsulfonyl)phenyl)amino)-2,6-naphthyridin-1-yl)-1H-indazol-1-yl)acetamide] | 25 to 250 | > 250 | > 250 | > 250 | – | – | – | –
Cc1c(-c2nccc3cnc(Nc4ccc(S(C)(=O)=O)cc4)cc23)ccc2c1cnn2C(N)=O [Example 659, 4-methyl-5-(7-((4-(methylsulfonyl)phenyl)amino)-2,6-naphthyridin-1-yl)-1H-indazole-1-carboxamide] | – | > 250 | – | – | – | < 25 | 25 to 250 | 25 to 250
N#Cc1ccc(C#Cc2nccc3cnc(Nc4ccc(S(=O)(=O)CCN5CCOCC5)cc4)cc23)cc1 [Example 661, 4-((7-((4-((2-morpholinoethyl)sulfonyl)phenyl)amino)-2,6-naphthyridin-1-yl)ethynyl)benzonitrile] | 25 to 250 | > 250 | > 250 | > 250 | – | – | – | –
Cn1cc(C#Cc2nccc3cnc(Nc4ccc(S(C)(=O)=O)cc4)cc23)ccc1=O [Example 663, 1-Methyl-5-((7-((4-(methylsulfonyl)phenyl)amino)-2,6-naphthyridin-1-yl)ethynyl)pyridin-2(1H)-one] | 25 to 250 | > 250 | > 250 | > 250 | – | – | – | –
CS(=O)(=O)c1ccc(Nc2cc3c(C#Cc4ccc(CN5CCOCC5)cc4)nccc3cn2)cc1 [Example 666, N-(4-(methylsulfonyl)phenyl)-5-((4-(morpholinomethyl)phenyl)ethynyl)-2,6-naphthyridin-3-amine] | – | > 250 | > 250 | > 250 | – | < 25 | – | –
Cc1c(-c2nccc3cnc(Nc4ccc(S(C)(=O)=O)cc4)cc23)ccc2c1cnn2C(=O)NC(C)(C)C [Example 668, N-(tert-butyl)-4-methyl-5-(7-((4-(methylsulfonyl)phenyl)amino)-2,6-naphthyridin-1-yl)-1H-indazole-1-carboxamide] | 25 to 250 | > 250 | > 250 | > 250 | – | – | – | –
C/C=C/S(=O)(=O)c1ccc(Nc2cc3c(N4CCC(C#N)CC4)nccc3cn2)cc1 [Example 670, (E)-1-(7-((4-(prop-1-en-1-ylsulfonyl)phenyl)amino)-2,6-naphthyridin-1-yl)piperidine-4-carbonitrile] | 25 to 250 | > 250 | > 250 | > 250 | – | – | – | –
CC(=O)NS(=O)(=O)c1ccc(Nc2cc3c(-c4ccc5c(cnn5CC(O)(C(F)(F)F)C(F)(F)F)c4C)nccc3cn2)cc1 [Example 678, N-((4-((5-(4-methyl-1-(3,3,3-trifluoro-2-hydroxy-2-(trifluoromethyl)propyl)-1H-indazol-5-yl)-2,6-naphthyridin-3-yl)amino)phenyl)sulfonyl)acetamide] | 25 to 250 | > 250 | > 250 | > 250 | – | – | – | –
